Laboratory results: patent publication US20220040136A1, “TREATMENT OF VULVOVAGINAL DISORDERS” (University of Rochester, priority 2018, published 2022)

Tests used:
human vulvar fibroblasts [1] = experiment: In vitro LPV model: SPM post-treatment of already activated patient fibroblasts, IL-6 and PGE2; assay type: cell-based; details: post-treatment: IL-1β 30 min, then 5 nM SPM 18 hours, booster dose 6 hr
Method: (§1) FIGS. 5A, 5B, 5C, and 5D are a set of diagrams showing that PGE2 and IL-6 production is reduced by SPMs. Patient vestibular or vulvar fibroblasts were pre-treated for 10 hours with Lipoxin A4 (LxA4), Resolvin D2 (RvD2), (7R)-Maresin 1 or epi(7S)-Maresin 1 at a 5 nM concentration, then activated with IL-1β (Panel A; 10 pg/ml) or bradykinin (Panel B; 100 nM) for 48 hr. Culture media were collected and analyzed for PGE2 (Panel A) or IL-6 (Panel B) content. Patient fibroblasts were also activated first with IL-1β for 30 min then treated with 5 nM (7R)-Maresin 1 or LXA4 for 18 hours, followed by a booster dose for 6 hr. Culture media were collected and analyzed for PGE2 (Panel C) or IL-6 (Panel D) content. Mean+/−SEM of n=3, ANOVA *p<0.05 vs. activation only (no SPM).
FIGS. 24A and 24B are diagrams showing that six SPMs are effective in reducing IL-6 and PGE2 production from fibroblasts when used as a post-treatment. Patient vestibular or vulvar fibroblasts were activated first with IL-1β for 30 min then treated with RvD3, RvD4, RvD5, RvE1, Protectin D1 or Protectin DX at a 5 nM concentration for 18 hours, followed by a booster SPM dose for 24 hr. Culture media were collected and analyzed for IL-6 (Panel A) and PGE2 (Panel B) content. Mean+/−SEM of n=6 (two cases run in triplicate), ANOVA *p<0.05 vs. activation only (IL-1b). […] The magnitude of reduction was not as great as pre-treatment, but equally significant as the reduction from pre-treatment regimens.
(§2) In this example, a fibroblast-based in vitro LPV model was established. Briefly, fibroblast strains were obtained from two regions (FIG. 1) of the lower genital tract of localized provoked vulvodynia (LPV) cases and pain-free controls in the manner described in Falsetta et al. Am J Obstet Gynecol 2015, vol. 213, pp. 38 e1-12 and Foster et al., Pain 2015, vol. 156, pp. 386-96.
(§3) Over 30 paired fibroblast strains obtained from LPV-afflicted cases (fulfilling Friedrich's Criteria)^25 and age/race-matched (critical variables influencing LPV),^26, 27 pain-free controls were obtained. All subjects who contributed to the library were premenopausal, denied oral corticosteroids, non-steroidal, immunomodulatory, or anti-inflammatory medication use, and reported an absence of systemic/cutaneous inflammatory conditions at the time of sample collection. Mechanical pain thresholds were determined (via a method of limits) (0.5-5 N) using a Wagner algometer. Fibroblast identity was confirmed by microscopy and fibroblast markers (vimentin, collagen); only low passage (˜4) cells are used.
(§4) Synthesized, purified and commercially available SPMs from each known SPM class (E-series Resolvins, D-series Resolvins, Maresins, Protectins and Lipoxins) at low/nanomolar concentrations (1-100 nM) were tested. […] The inventors used one of two treatment regimens proven effective in vulvar fibroblasts and other cells: 1) overnight pre-treatment, followed by another treatment 30 min prior to stimulation with proinflammatory stimuli for 48 hr with a third dose of SPMs at 24 hr post-challenge, or 2) post-treatment with SPMs after a 30 min pre-treatment with inflammatory stimuli, followed by a booster dose 18 hr later. Both treatment regimens are of interest, as SPMs are active throughout the inflammatory process.^5-7 Even SPMs administered after LPV onset are likely to prevent the worsening or spread of LPV pain.

human vulvar fibroblasts [2] = experiment: In vitro LPV model: SPM pre-treatment of patient vestibular/vulvar fibroblasts before inflammatory stimulation, IL-6 and PGE2 by ELISA/EIA; assay type: cell-based; details: pre-treated 10 hours with 5 nM SPM, vestibular and external vulvar fibroblasts
Method: as §1
FIGS. 23A and 23B are diagrams showing six SPMs are effective in reducing IL-6 and PGE2 production from fibroblasts when used as a pre-treatment and post-treatment. Patient vestibular or vulvar fibroblasts were pre-treated for 18 h with Resolvin D3 (RvD3), Resolvin D4 (RvD4), Resolvin D5 (RvD5), Resolvin E1 (RvE1), Protectin D1 or Protectin DX at a 5 nM concentration, pre-treated again for 30 min prior to activation, then activated with 10 pg/ml IL-1β for 48 h with a booster SPM dose at 24 h. Culture media were collected and analyzed for IL-6 (Panel A) and PGE2 (Panel B). Mean+/−SEM of n=6 (two cases run in triplicate), ANOVA *p<0.05 vs. activation only (IL-1b).
as §2, §3, §4
Next, SPMs from other classes (E series Resolvins and Protectins), as well as additional SPMs from classes containing members that are effective in reducing IL-6 and PGE2 production (e.g., Maresins) were investigated in similar screen. […] SPMs that were effective in reducing more than one proinflammatory mediator in at least 2 tests can be examined for further testing using a preclinical mouse model. […] These additional effective SPMs include Resolvin D3, Resolvin D4, Resolvin D5, Resolvin E1, Protectin D1, and Protectin DX. […]

CC/C=C\C/C=C\C[C@H](O)\C=C/C=C/C=C/[C@H](O)C/C=C\CCC(=O)O [Maresin 1, 7R,14S-docosa-4Z,8E,10E,12Z,16Z,19Z-hexaenoic acid]
significantly reduced: PGE2 levels (human vulvar fibroblasts [1]; FIG. 5C) | IL-6 levels (human vulvar fibroblasts [1]; FIG. 5D) | prostaglandin E2 (PGE2) production (human vulvar fibroblasts [2]; then IL-1β 10 pg/ml 48 hr, FIG. 5A) | interleukin-6 (IL-6) production (human vulvar fibroblasts [2]; then bradykinin 100 nM 48 hr, FIG. 5B)
